Patent US4194006A, “Therapeutic application of acetyl-d,l-carnitine and other acyl derivatives of d,l-carnitine” (priority 1977, dated 1980)
Where two headings read alike, the source gives them in different places.

What was measured:
[1] = test system: female rats; assay: antifatigue effect: rota-rod; type: in vivo, rat; conditions: Rattus norvegicus, ip, 0.25 h, read-out: percentage of animals staying on the rota-rod more than 180 seconds; for responders at 300 mg/kg: 300 mg/kg i.p.; for responders at 400 mg/kg: 400 mg/kg i.p.; for responders at 600 mg/kg: 600 mg/kg i.p.
Protocol: The antifatigue effect was also examined with the following results. The antifatigue effect was investigated by administering the compounds of the formula (I) according to the present application to female rats intraperitoneally in saline solution and saline solution alone to the controls by the same route. Every 15 minutes (sessions) after treatment, the animals were placed on a 6 cm diameter rod, rotating at 16 r.p.m. The percentage of the animals capable of staying on the rota-rod for a duration of more than 180 seconds was then recorded.

[2] = test system: isolated rabbit hearts; assay: coronary vasodilator effect: coronary flow, isolated heart (Langendorff)
Protocol: (§1) The cardiokinetic effect on isolated heart was also investigated as follows. Rabbit hearts isolated by the Langendorff method were perfused with oxygenized ringer solution at 38.2° C. The isometric contractions, electrocardiogram and coronary flow were recorded using a "Battaglia-Rangoni" polygraph. By removing the oxygen from the perfusion fluid, metabolic damage was induced in the cardia muscle, up to an 80% reduction in the cardiac contractile force.
(§2) Under these conditions of prolonged anoxia the aerobic glycolysis of the myocardium is slowed down, accompanied by the storage of acid catabolites due to both the accumulation of pyruvic acid and its conversion to lactic acid which cannot be utilized because of the depression of pyridine enzymes, such as LDH (lactodehydrogenase). This has repercussions on the anaerobic glycolysis affecting an ever increasing number of enzymes, accompanied by a progressive and increasingly critical exhaustion of the myocardium. Thus a whole series of cardiac muscle fatigue levels occurs which can be observed by the behavior of the examined parameters, namely the contractile force, coronary flow, heart rate and cardiac rhythm. As soon as the contractile force was reduced by 80%, the perfusion fluid was once again oxygenized either without adding other compounds (controls) or with the addition of the compounds under examination.

[3] = test system: isolated rabbit hearts; assay: cardiokinetic effect on isolated heart (Langendorff): contractile force after anoxia, positive inotropic effect; conditions: 10 minutes from interruption of anoxic period
Protocol: as §1, §2
Table 3 below gives the percentage values of the contractile force of the heart, showing a positive inotropic effect, calculated after 10 minutes from the interruption of the anoxic period (myocardial restoration).

[4] = test system: isolated rat atrium; assay: antiarrhythmic effect, isolated rat atrium method of M. Libonati and G. Segre; conditions: Rattus norvegicus; for inhibition at 0.1 µg/mL / activation at 0.1 µg/mL: 1·10^-4 g/lt; for inhibition at 0.1 µg/mL / inhibition at 0.01 µg/mL / inhibition at 0.001 µg/mL: decrease; for activation at 0.1 µg/mL / activation at 0.01 µg/mL / activation at 0.001 µg/mL: increase; for inhibition at 0.01 µg/mL / activation at 0.01 µg/mL: 1·10^-5 g/lt; for inhibition at 0.001 µg/mL / activation at 0.001 µg/mL: 1·10^-6 g/lt
[5] = session 6 (every 15 minutes), * p < 0.05
[6] = read-out: Mean percent variation versus controls: excitability (-%)
[7] = read-out: Mean percent variation versus controls: frequency max (-%)
[8] = read-out: Mean percent variation versus controls: refractory period (+%)
[9] = read-out: Mean percent variation versus controls: rheobase (+%)

`CCCCCCCC(=O)OC(CC(=O)[O-])C[N+](C)(C)C` (racemic) [octanoyl-d,l-carnitine] showed a responders at 300 mg/kg ([1]; session 1 (every 15 minutes)) of 0%, a responders at 300 mg/kg ([1]; session 2 (every 15 minutes)) of 0% and a responders at 300 mg/kg ([1]; session 3 (every 15 minutes)) of 0%. It also gave a responders at 300 mg/kg ([1]; session 4 (every 15 minutes)) of 0%, a responders at 300 mg/kg ([1]; session 5 (every 15 minutes)) of 10% and a responders at 300 mg/kg ([1]; session 6 (every 15 minutes)) of 10%. For the same compound, the responders at 400 mg/kg ([1]; session 1 (every 15 minutes)) was 0%, the responders at 400 mg/kg ([1]; session 2 (every 15 minutes)) was 0% and the responders at 400 mg/kg ([1]; session 3 (every 15 minutes)) was 0%. The responders at 400 mg/kg ([1]; session 4 (every 15 minutes)) was 0%, the responders at 400 mg/kg ([1]; session 5 (every 15 minutes)) was 10% and the responders at 400 mg/kg [1, 5] was 10%. For the same compound, the responders at 600 mg/kg ([1]; session 1 (every 15 minutes)) was 0%, the responders at 600 mg/kg ([1]; session 2 (every 15 minutes)) was 0% and the responders at 600 mg/kg ([1]; session 3 (every 15 minutes)) was 10%. For the same compound, the responders at 600 mg/kg ([1]; session 4 (every 15 minutes)) was 10%, the responders at 600 mg/kg ([1]; session 5 (every 15 minutes)) was 10% and the responders at 600 mg/kg [1, 5] was 30%. The “Coronary flow, Mean ± S.E.” value ([2]; 1·10^-5 g/lt) was 84.71 ± 6.20%, the “Coronary flow, Mean ± S.E.” value ([2]; 1·10^-6 g/lt) was 76.24 ± 6.13% and the “Coronary flow, Mean ± S.E.” value ([2]; 5·10^-6 g/lt) was 76.00 ± 9.16%. For the same compound, the “Contractile force, Mean ± S.E.” value ([3]; 1·10^-5 g/lt) was 37.8 ± 4.62%, the “Contractile force, Mean ± S.E.” value ([3]; 1·10^-6 g/lt) was 25.2 ± 3.60% and the “Contractile force, Mean ± S.E.” value ([3]; 5·10^-6 g/lt) was 29.8 ± 4.13%. It also gave an inhibition at 0.1 µg/mL [4, 6] of 47.8%, an inhibition at 0.1 µg/mL [4, 7] of 17.2% and an activation at 0.1 µg/mL [4, 8] of 39.8%. The activation at 0.1 µg/mL [4, 9] was 4.16%, the inhibition at 0.01 µg/mL [4, 6] was 28.6% and the inhibition at 0.01 µg/mL [4, 7] was 36.2%. It also gave an activation at 0.01 µg/mL [4, 8] of 16.5%, an activation at 0.01 µg/mL [4, 9] of 0% and an inhibition at 0.001 µg/mL [4, 6] of 12.7%. It also gave an inhibition at 0.001 µg/mL [4, 7] of 10.9%, an activation at 0.001 µg/mL [4, 8] of 5.73% and an activation at 0.001 µg/mL [4, 9] of 9.46%.
